Patent publication US20040071718A1, “Local nasal immunotherapy for allergen-induced airway inflammation” (priority 2002, published 2004)

B1: FIP: fungal immunomodulatory protein isolated from Flammalina velutipes, amino acid sequence ID No. 3 (protein)
chain: SATSLTFQLAVLVKKIDFDYTPNWGRGTPSSYIDNLTFPKVLTDKKYSYRVVVNGSDLGVESNFAVTPSGGQTINFLQYNKGYGVADTKTIQVFVVIPDTGNSEEYIIAEWKKT
modifications: Flammalina velutipes

Assays:
Assay type in all cases: in vivo
[1] = system: Balb/c mice; test: Dp2 specific IgG1, IgG2a and IgE in sera (ELISA) after LNIT; conditions: for Dp2 specific IgG1 production in the sera: Example 1, FIG. 2A; for Dp2 specific IgG1 production in the sera / Dp2 specific IgG2a production in the sera / Dp2 specific IgE production in the sera: compared with NS group; for Dp2 specific IgG2a production in the sera: Example 1, FIG. 2B; for Dp2 specific IgE production in the sera: Example 1, FIG. 2C
Method: Male Balb/c mice were obtained from the National Laboratory Breeding Research Center in Taiwan and were raised in a specific pathogen-free environment. The mice used were between six and eight weeks of age. Groups of six mice were caged separately according to their treatment. Recombinant Dermatophoides pteronyssinus group 2 (rDp2) was prepared as previously described(Tsai J J, et al. Int Arch Allergy Immunol 2000;121:205-10). Dp2 28-40 and Dp2 28-40A were obtained from Dr. Jonathan Lamb (Respiratory Medicine Unit, Edinburgh University, Medical School, Edinburgh, UK) (Verhoef A, and Lamb J R. J Immunol 2000;164:6034-6040). FIP was obtained from Dr. Ko Jiunn-Liang (Institute of Toxicology, Chung Shan Medical University, Taichung, R O C) (J L Ko, et al. Eur. J. Biochem. 1995;228:244-249).
(§1) Mice were immunized by way of an intraperitoneal (IP) injection of 1 μg/0.1 mL rDp2 emulsified in 4.0 mg/0.062mL aluminum hydroxide Al(OH)3 (Whitehall Lab Ltd. Punchbowl, NSW, Australia) on day 0 and day 7. Following immunization, local nasal immunotherapy (LNIT) was conducted daily from day 14 to day 35 with Dp2 28-40, Dp2 28-40A, FIP alone or FIP mixed with either Dp2 28-40 or Dp2 28-40A (FIP, 50 μg/mouse/day; Dp2 peptide, 1 μg/20 μL) in PBS with 10% glycerol. Normal saline (NS) and irrelevant allergen Bt were used as a negative control. […] On day 28, mice were lightly anesthetized with an IP injection of 60 mg/kg of sodium pentobarbital (Sigma Chemical Co., St Louis, Mo., U.S.A.) and inoculated intratracheally (IT) with 1 μg/50 μL of rDp 2 on day 28 and day 35. Two days subsequent to the second IT inoculation, the mice were sacrificed following the assessment of their pulmonary function (FIG. 1).
Blood was obtained from the retro-orbital venous plexus at the commencement and end of the experimental program. Serum IgE, IgG1 and IgG2a titers of anti-Dp2 antibodies were determined using an enzyme-linked immunosorbent assay (ELISA) technique. Microtiter plates (Nunc Lab, Ill., U.S.A.) were coated with 100 μL Dp2 overnight at a concentration of 0.5 μg/mL and left in a 4° C. refrigerator. Microtiter-plate nonspecific binding sites were blocked with 3% BSA in PBS for two hours at room temperature. Plates were washed with PBS-Tween-20 (PBST) three times and stored at −70° C. prior to subsequent use. Subsequent to the addition of a 1:5 dilution for IgE, a 1:100 dilution for IgG1 and a 1:5 dilution for IgG2a of mice serum, plates were incubated at 4° C. overnight, and then washed three times before the antibody (Horse radish peroxidase-conjugated goat anti-mouse IgE and IgG2a Ab 1:800, IgG1 Ab 1:2,000 Southern Biotech Assoc, Inc, Birmingham, Ala., U.S.A.) was added. Following a one-hour incubation at 37° C. and three washes with PBST, the enzyme substrate (2,2″-Azino-bis(3-ethylbenzothiazolin-6-sulfonic acid diammonium salt; Bio-Rad, USA) was added. The reaction was stopped using 50 μL 4N H2SO4 after the reaction had been allowed to continue for 15 minutes, following which the optical density was measured at 450nm using a multiscan spectrophotometer (model A-5682, SLT Lab Instruments, Salzburg, Austria). Results were expressed as ELISA units (EU), one EU being defined as the reciprocal value of the serum dilution that elicited an optical density of 1.0. Such a value was selected so as to always lie within the linear component of the dilution curve. To assure reproducibility, a known serum was included with each test as a standard.

[2] = system: Balb/c mice; test: IL-5 and IFN-γ levels in sera and BALF (ELISA) after LNIT; conditions: for IL-5 levels in sera: Example 1, FIG. 3A; for IFN-γ levels in sera: Example 1, FIG. 3B; for IFN-γ / IL-5: Example 2, mean ± SEM, n = 6
Method: Male Balb/c mice were obtained from the National Laboratory Breeding Research Center in Taiwan and were raised in a specific pathogen-free environment. The mice used were between six and eight weeks of age. Groups of six mice were caged separately according to their treatment.
as §1
IFN-γ and IL-5 were measured using commercially-available ELISA kits, using a specific mouse monoclonal Ab that recognized different epitopes of the cytokine molecules. The lowest detector range was 10 pg/mL. Given that the BALF was considered to be at too diluted a concentration, IL-4 was not measured.

[3] = system: Balb/c mice; test: Free radical production in BALF (chemiluminescence) after LNIT; conditions: FIG. 4, chemiluminescence, expressed as counts/10 seconds, compared to NS control
Method: as §1
Using chemiluminescence, free radicals in the BAL fluid were measured immediately after each experiment. The total amounts of free radical were detected and expressed as counts/10 seconds.

[4] = system: Balb/c mice; test: Lung pathology (HE stain) after LNIT; conditions: lung tissue two days after IT with rDp2; for pathology: inflammatory cell infiltration and epithelium damage in the airway: Example 1, FIGS. 6A-6F
From the text: FIGS. 6A-6F are photographs showing the pathology of different groups of mice after LNIT. The lung tissues were obtained two days after IT with rDp2. […] (HE stain, ×400).
FIGS. 9A-1˜9F-2 are photographs showing the pathology of different groups of mice following LNIT. The lung tissues were obtained two days subsequent to IT inoculation with rDp2. FIGS. 9A-1, -2: naive mice; FIGS. 9B-1, -2: NS-treated mice; FIGS. 9C-1, -2: DEX-treated mice; FIGS. 9D-1, -2: FIP-fve treated mice; FIGS. 9E-1, -2: Dp2 28-40A+FIP-fve treated mice; and FIGS. 9F-1, -2: Dp2 28-40+FIP-fve treated mice. FIGS. 9A-1, 9B-1, 9C-1, 9D-1, 9E-1 and 9F-1: HE stain, 100×; 9A-2, 9B-2, 9C-2, 9D-2, 9E-2, 9F-2: HE stain, 400×
as §1

Molecule	Dp2 specific IgG1 production in the sera [1]	Dp2 specific IgG2a production in the sera [1]	Dp2 specific IgE production in the sera [1]	IL-5 levels in sera ([2]; compared to NS treated mice)	IFN-γ levels in sera ([2]; compared to NS treated mice)	IL-5 levels in BALF ([2]; Example 1, FIG. 3C, compared to NS treated mice)	IFN-γ levels in BALF ([2]; Example 1, FIG. 3D, compared to NS treated mice)	free radical production in the BAL fluid [3]	pathology: inflammatory cell infiltration and epithelium damage in the airway [4]	Dp2 specific IgG1 production in sera ([1]; Example 2, FIG. 7A, compared with NS)	Dp2 specific IgG2a production in sera ([1]; Example 2, FIG. 7B, compared with NS)	Dp2 specific IgE production in sera ([1]; Example 2, FIG. 7C, compared with NS)	IFN-γ ([2]; BALF)	IL-5 ([2]; BALF)	IFN-γ ([2]; Sera)	IL-5 ([2]; Sera)	pathology: inflammatory-cell infiltration and epithelial damage in the airways ([4]; Example 2, FIGS. 9A-9F)
Dp2 28-40: Dermatophoides pteronyssinus group 2 (Dp2) epitope peptide, residues 28-40, amino acid sequence ID No. 1 (IIHRGKPFQLEAV; listed as Dermatophoides pteronyssinus)	significantly reduced	increased	reduction of IgE	decreased	Significantly increased	significant reduction	significant increase	significantly inhibited	reductions in airway inflammation								
Dp2 28-40A: altered TCR ligand of Dp2 28-40, residues at positions 34 and 36 substituted by alanine; amino acid sequence ID No. 2 (IIHRGKAFALEAV; listed as Dermatophoides pteronyssinus)	significantly reduced	increased	reduction of IgE was observed only in the group of Dp2 28-40	decreased	Significantly increased				reductions in airway inflammation								
B1										significantly reduced	significantly increased	significantly reduced	8.3 ± 0.4 pg/mL	19.3 ± 1.9 pg/mL	52.0 ± 1.9 pg/mL	77.6 ± 1.9 pg/mL	reduction in the level of airway inflammation
